US6653529B2, “Use of the maize X112 mutant ahas 2 gene and imidazolinone herbicides for selection of transgenic monocots, maize, rice and wheat plants resistant to the imidazolinone herbicides” (BASF Aktiengesellschaft, priority 2000, dated 2003)

Key:
[1] = tested on: transgenic rice containing 35S/als transgene; conditions: cited from earlier work
[2] = tested on: AHAS (acetohydroxyacid synthase) in extracts of Nortai, Line 26 and Line 29; experiment: In vitro AHAS activity assay; format: biochemical, rice; conditions: Nt, Line 26, Line 29; FIG. 2
Protocol: Previously published procedures were used for the extraction and in vitro assay for AHAS activity (Singh et al. 1988). Lower portions of the shoots were used as the source of plant tissue for the assay. The desalted crude extracts were used for the in vitro enzyme assays. Acetolactate produced by the enzyme was converted to acetoin, which was measured by the Westerfield assay system.
In vitro AHAS assays were performed to understand the basis of herbicide tolerance in the transgenic plants. Previously published procedure was used for the extraction and in vitro assay for AHAS activity (Singh et al. 1988). The lower portions of the shoots were used as the source of plant tissue for the assay. The desalted crude extracts were used for the in vitro enzyme assays. Acetolactate produced by the enzyme was converted to acetoin, which was measured by the Westerfield assay system (Westerfield 1945). The specific activity of AHAS was about 30% higher in Line 26 (67 nmoles/mg protein/h) and Line 29 (64 nmoles/mg protein/h) compared to the activity in Nortai (Nt) (50 nmoles/mg protein/h).

COc1nc(C)nc(NC(=O)NS(=O)(=O)c2ccccc2Cl)n1 [chlorsulfuron]
differences in in vitro resistance ([1]; Arabidopsis ALS promoter replaced with CaMV35S promoter (Li et al. 1992)): 40 fold
increase in in vitro resistance ([1]; transgenic rice containing 35S/als transgene (Li et al. 1992)): 200 fold
inhibition of AHAS activity from all three lines [2]: inhibited in a similar manner
